Literature values, collected in paper PMC2978073 (Journal of medicinal chemistry, 2010).

Tests used:
[1] = system: rabbit model for cerebral palsy
[2] = compared with 3

bioavailability [2] | SMILES | effect on eNOS-regulated blood pressure [1] | hypoxia-ischemia induced death [1] | number of newborn kits exhibiting cerebral palsy phenotype [1]
– | Cc1cc(N)nc(C[C@H]2CNC[C@H]2NCCNCc2ccc(Cl)cc2)c1 (racemic) [(±)-2] | without affecting eNOS-regulated blood pressure | prevent hypoxia-ischemia induced death | reduce the number of newborn kits exhibiting cerebral palsy phenotype
– | Cc1cc(N)nc(C[C@H]2CNC[C@H]2NCCNCCc2cccc(F)c2)c1 (racemic) [(±)-3] | without affecting eNOS-regulated blood pressure | prevent hypoxia-ischemia induced death | reduce the number of newborn kits exhibiting cerebral palsy phenotype
improved bioavailability | Cc1cc(N)nc(C[C@H]2CNC[C@H]2OCCNCCc2cccc(F)c2)c1 (racemic) [(±)-4] | – | – | –
